Laboratory results reported in patent US20200223889A1, “Bicyclic Compounds Capable of Binding to Melanocortin 4 Receptor” (Novo Nordisk A/S, priority 2017, published 2020).
Where two headings read alike, the source gives them in different places. Positions of bridges follow the written chain, without caps; N, C: chain ends. Non-standard residues stand in square brackets, D forms with d. Residues, ends and D or L forms follow the SMILES beside them. Phe(3,4-(OMe)2) = COc1ccc(C[C@H](N)C(=O)O)cc1OC; 2Nal = N[C@@H](Cc1ccc2ccccc2c1)C(=O)O; Hyp = O=C(O)[C@@H]1C[C@@H](O)CN1; Pen = CC(C)(S)[C@H](N)C(=O)O; Thz = O=C(O)[C@@H]1CSCN1; Aze = O=C(O)[C@@H]1CCN1

Legend:
[1] = biological target: T1, human MC4R (Homo sapiens, UniProt P32245); test: 125NDP-α-MSH competitive binding to membranes of BHK cells expressing human MC4 receptor (filtration assay)
T1 construct: expressed in transfected cells
Method in brief: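 Displacement of ^125NDP-α-MSH (apx. […] final) was measured by filtration after 2 h at 25 °C, using diluted membranes of stably transfected BHK cells in pH 7.0 HEPES buffer. Compounds spanned 1 μM to 0.001 nM; binding curves were analysed by non-linear regression.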

[2] = biological target: T1, human MC4R; test: Functional cAMP assay (CisBio HTRF) in BHK cells expressing human MC4R; assay type: cell-based; conditions: for MC1R/MC4R cAMP EC50 ratio: MC1R cAMP EC50 divided by MC4R cAMP EC50
Method in brief: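 Compound working solutions, 10-fold dilutions from 2 μM at twice final strength, in buffer containing 1 mM IBMX, were incubated 30 min at 25 °C with BHK cells stably carrying human MC4R or MC1R. Accumulated cAMP was then detected by competitive HTRF after 1 h at 25 °C and fitted by non-linear regression.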

[3] = human MC4R, BHK cell membranes, 125NDP-α-MSH radioligand, read-out: MC4R binding Ki
[4] = BHK cells expressing human MC4R, '>' = highest dose used with no response, read-out: MC4R cAMP EC50

T1 sequence (P32245 whole entry): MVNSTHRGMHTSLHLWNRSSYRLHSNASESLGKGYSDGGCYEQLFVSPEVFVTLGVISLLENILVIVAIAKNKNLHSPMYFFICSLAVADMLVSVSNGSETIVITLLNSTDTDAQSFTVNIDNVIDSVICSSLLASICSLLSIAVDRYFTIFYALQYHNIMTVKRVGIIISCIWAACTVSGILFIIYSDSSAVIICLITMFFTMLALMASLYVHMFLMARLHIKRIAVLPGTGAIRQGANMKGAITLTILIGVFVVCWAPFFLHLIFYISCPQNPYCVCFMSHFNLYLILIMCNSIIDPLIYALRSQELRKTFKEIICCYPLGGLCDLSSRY

Row | Structure (SMILES) | Ki [1, 3] [nM] | EC50 [2, 4] [nM] | MC1R/MC4R cAMP EC50 ratio [2] | Ki [1] [nM] | EC50 [2] [nM]
1 | NCCCC[C@@H]1NC(=O)[C@H](CCCCN)NC(=O)[C@@H]2CSSC[C@H](NC(=O)[C@H](Cc3c[nH]c4ccccc34)NC(=O)[C@H](CCCCN)NC(=O)[C@H](CCCCN)NC1=O)C(=O)N1CCC[C@H]1C(=O)N[C@@H](Cc1c[nH]cn1)C(=O)N[C@H](Cc1ccccc1)C(=O)N[C@@H](Cc1c[nH]cn1)C(=O)N[C@@H](Cc1c[nH]c3ccccc13)C(=O)N2 [Chem. 75, c[c[Cys-Pro-His-D-Phe-His-Trp-Cys]- Lys-Lys-Lys-Lys-Trp]] (cyclo(CKKKKWCPH[dF]HW); disulfide 1-7) | 0.11 | 0.44 | 155 | – | –
2 | C[C@@H]1NC(=O)[C@@H]2CSSC[C@H](NC(=O)[C@H](Cc3c[nH]c4ccccc34)NC(=O)[C@H](CCCCN)NC(=O)[C@H](CCCCN)NC(=O)[C@H](CCCCN)NC1=O)C(=O)N[C@@H](CCCCN)C(=O)N[C@@H](Cc1c[nH]cn1)C(=O)N[C@H](Cc1ccccc1)C(=O)N[C@@H](Cc1c[nH]cn1)C(=O)N[C@@H](Cc1c[nH]c3ccccc13)C(=O)N2 [Chem. 76, c[c[Cys-Lys-His-D-Phe-His-Trp-Cys]- Ala-Lys-Lys-Lys-Trp]] (cyclo(AKKKWCKH[dF]HWC); disulfide 6-12) | 0.09 | 0.16 | 136 | – | –
3 | NCCCC[C@@H]1NC(=O)[C@H](CCCCN)NC(=O)[C@H](CCCCN)NC(=O)[C@@H]2CSSC[C@H](NC(=O)[C@H](Cc3c[nH]c4ccccc34)NC(=O)[C@H](CCCCN)NC1=O)C(=O)N[C@@H](CCCCN)C(=O)N[C@@H](Cc1c[nH]cn1)C(=O)N[C@H](Cc1ccccc1)C(=O)N[C@@H](Cc1c[nH]cn1)C(=O)N[C@@H](Cc1c[nH]c3ccccc13)C(=O)N2 [Chem. 77, c[c[Cys-Lys-His-D-Phe-His-Trp-Cys]- Lys-Lys-Lys-Lys-Trp]] (cyclo(CKH[dF]HWCKKKKW); disulfide 1-7) | 0.72 | – | 108 | – | –
4 | C[C@@H]1NC(=O)[C@@H]2CSSC[C@H](NC(=O)[C@H](CCCNC(=N)N)NC(=O)[C@H](CCCCN)NC(=O)[C@H](CCCCN)NC(=O)[C@H](CCCCN)NC1=O)C(=O)N[C@@H](CCCCN)C(=O)N[C@@H](Cc1c[nH]cn1)C(=O)N[C@H](Cc1ccccc1)C(=O)N[C@@H](Cc1c[nH]cn1)C(=O)N[C@@H](Cc1c[nH]c3ccccc13)C(=O)N2 [Chem. 78, c[c[Cys-Lys-His-D-Phe-His-Trp-Cys]- Ala-Lys-Lys-Lys-Arg]] (cyclo(AKKKRCKH[dF]HWC); disulfide 6-12) | 0.02 | 0.04 | 95 | – | –
5 | C[C@@H]1NC(=O)[C@@H]2CSSC[C@H](NC(=O)[C@H](Cc3ccc4ccccc4c3)NC(=O)[C@H](CCCNC(=N)N)NC(=O)[C@@H](Cc3ccccc3)NC(=O)[C@H](Cc3c[nH]cn3)NC1=O)C(=O)N[C@@H](C)C(=O)N[C@@H](CCCCN)C(=O)N[C@@H](CCCCN)C(=O)N[C@@H](CCCCN)C(=O)N[C@@H](Cc1c[nH]c3ccccc13)C(=O)N2 [Chem. 79, c[c[Cys-Ala-His-D-Phe-Arg-2-Nal- Cys]-Ala-Lys-Lys-Lys-Trp]] (cyclo([2Nal]CAKKKWCAH[dF]R); disulfide 2-8) | 0.03 | 0.02 | 58 | – | –
6 | C[C@@H]1NC(=O)[C@@H]2CSSC[C@H](NC(=O)[C@H](Cc3c[nH]c4ccccc34)NC(=O)[C@H](CCCCN)NC(=O)[C@H](CCCCN)NC(=O)[C@H](CCCCN)NC1=O)C(=O)N1CC[C@H]1C(=O)N[C@@H](Cc1c[nH]cn1)C(=O)N[C@H](Cc1ccccc1)C(=O)N[C@@H](Cc1c[nH]cn1)C(=O)N[C@@H](Cc1c[nH]c3ccccc13)C(=O)N2 [Chem. 82, c[c[Cys-AZE-His-D-Phe-His-Trp-Cys]- Ala-Lys-Lys-Lys-Trp]] (cyclo(AKKKWC[Aze]H[dF]HWC); disulfide 6-12) | 0.07 | – | 178 | – | –
7 | C[C@@H]1NC(=O)[C@@H]2CSSC[C@H](NC(=O)[C@H](Cc3c[nH]c4ccccc34)NC(=O)[C@H](CCCCN)NC(=O)[C@H](CCCCN)NC(=O)[C@H](CCCCN)NC1=O)C(=O)N[C@H](CCCCN)C(=O)N[C@@H](Cc1c[nH]cn1)C(=O)N[C@H](Cc1ccccc1)C(=O)N[C@@H](Cc1c[nH]cn1)C(=O)N[C@@H](Cc1c[nH]c3ccccc13)C(=O)N2 [Chem. 84, c[c[Cys-D-Lys-His-D-Phe-His-Trp- Cys]-Ala-Lys-Lys-Lys-Trp]] (cyclo(AKKKWC[dK]H[dF]HWC); disulfide 6-12) | 0.19 | 0.59 | 74 | – | –
8 | NCCCC[C@H]1NC(=O)[C@@H]2CSSC[C@H](NC(=O)[C@H](Cc3c[nH]c4ccccc34)NC(=O)[C@H](Cc3c[nH]cn3)NC(=O)[C@@H](Cc3ccccc3)NC(=O)[C@H](Cc3c[nH]cn3)NC1=O)C(=O)N[C@H](CCCCN)C(=O)N[C@@H](Cc1c[nH]cn1)C(=O)N[C@H](Cc1ccccc1)C(=O)N[C@@H](Cc1c[nH]cn1)C(=O)N[C@@H](Cc1c[nH]c3ccccc13)C(=O)N2 [Chem. 86, c[c[Cys-D-Lys-His-D-Phe-His-Trp- Cys]-D-Lys-His-D-Phe-His-Trp]] (cyclo(C[dK]H[dF]HWC[dK]H[dF]HW); disulfide 1-7) | 9.6 | 14.5 | 10 | – | –
9 | C[C@@H]1NC(=O)[C@@H]2CSSC(C)(C)[C@H](NC(=O)[C@H](CCCNC(=N)N)NC(=O)[C@H](CCCCN)NC(=O)[C@H](CCCCN)NC(=O)[C@H](CCCCN)NC1=O)C(=O)N1CCC[C@H]1C(=O)N[C@@H](Cc1c[nH]cn1)C(=O)N[C@H](Cc1ccccc1)C(=O)N[C@@H](Cc1c[nH]cn1)C(=O)N[C@@H](Cc1c[nH]c3ccccc13)C(=O)N2 [Chem. 92, c[c[Pen-Pro-His-D-Phe-His-Trp-Cys]- Ala-Lys-Lys-Lys-Arg]] (cyclo(AKKKR[Pen]PH[dF]HWC); disulfide 6-12) | 0.04 | 0.13 | 362 | – | –
10 | C[C@@H]1NC(=O)[C@H]2NC(=O)[C@H](Cc3c[nH]c4ccccc34)NC(=O)[C@H](Cc3c[nH]cn3)NC(=O)[C@@H](Cc3ccccc3)NC(=O)[C@H](Cc3c[nH]cn3)NC(=O)[C@@H]3CCCN3C(=O)[C@H](CSSC2(C)C)NC(=O)[C@H](CCCNC(=N)N)NC(=O)[C@H](CCCCN)NC(=O)[C@H](CCCCN)NC(=O)[C@H](CCCCN)NC1=O [Chem. 93, c[c[Cys-Pro-His-D-Phe-His-Trp-Pen]- Ala-Lys-Lys-Lys-Arg]] (cyclo(AKKKRCPH[dF]HW[Pen]); disulfide 6-12) | 0.03 | 0.04 | 456 | – | –
11 | COc1ccc(C[C@@H]2NC(=O)[C@H](CCCNC(=N)N)NC(=O)[C@@H](Cc3ccccc3)NC(=O)[C@H](Cc3c[nH]cn3)NC(=O)[C@@H]3CCCN3C(=O)[C@@H]3CSSC[C@H](NC2=O)C(=O)N[C@@H](C)C(=O)N[C@@H](CCCCN)C(=O)N[C@@H](CCCCN)C(=O)N[C@@H](CCCCN)C(=O)N[C@@H](CCCNC(=N)N)C(=O)N3)cc1OC [Chem. 94, c[c[Cys-Pro-His-D-Phe-Arg-3,4- DiMeO-Phe-Cys]-Ala-Lys-Lys-Lys- Arg]] (cyclo(AKKKRCPH[dF]R[Phe(3,4-(OMe)2)]C); disulfide 6-12) | 0.25 | – | 26 | – | –
12 | C[C@@H]1NC(=O)[C@@H]2CSSC[C@H](NC(=O)[C@H](CCCNC(=N)N)NC(=O)[C@H](Cc3c[nH]cn3)NC(=O)[C@H](CCCCN)NC(=O)[C@H](CCCCN)NC1=O)C(=O)N1CCC[C@H]1C(=O)N[C@@H](Cc1c[nH]cn1)C(=O)N[C@H](Cc1ccccc1)C(=O)N[C@@H](Cc1c[nH]cn1)C(=O)N[C@@H](Cc1c[nH]c3ccccc13)C(=O)N2 [Chem. 95, c[c[Cys-Pro-His-D-Phe-His-Trp-Cys]- Ala-Lys-Lys-His-Arg]] (cyclo(AKKHRCPH[dF]HWC); disulfide 6-12) | 0.07 | 0.22 | 399 | – | –
13 | C[C@@H]1NC(=O)[C@@H]2CSSC[C@H](NC(=O)[C@H](CCCNC(=N)N)NC(=O)[C@H](CCCCN)NC(=O)[C@H](CCCCN)NC(=O)[C@H](CCCCN)NC1=O)C(=O)N1C[C@H](O)C[C@H]1C(=O)N[C@@H](Cc1c[nH]cn1)C(=O)N[C@H](Cc1ccccc1)C(=O)N[C@@H](Cc1c[nH]cn1)C(=O)N[C@@H](Cc1c[nH]c3ccccc13)C(=O)N2 [Chem. 97, c[c[Cys-Hyp-His-D-Phe-His-Trp-Cys]- Ala-Lys-Lys-Lys-Arg]] (cyclo(AKKKRC[Hyp]H[dF]HWC); disulfide 6-12) | 0.05 | 0.19 | 122 | – | –
14 | C[C@@H]1NC(=O)[C@@H]2CSSC[C@H](NC(=O)[C@H](CCCNC(=N)N)NC(=O)[C@H](CCCCN)NC(=O)[C@H](CCCCN)NC(=O)[C@H](CCCCN)NC1=O)C(=O)N1CSC[C@H]1C(=O)N[C@@H](Cc1c[nH]cn1)C(=O)N[C@H](Cc1ccccc1)C(=O)N[C@@H](Cc1c[nH]cn1)C(=O)N[C@@H](Cc1c[nH]c3ccccc13)C(=O)N2 [Chem. 100, c[c[Cys-THAZ-His-D-Phe-His-Trp- Cys]-Ala-Lys-Lys-Lys-Arg]] (cyclo(AKKKRC[Thz]H[dF]HWC); disulfide 6-12) | – | – | 925 | 0.04 | 0.02
